Measurements reported in patent US20030165919A1, “Method for the analysis of exogenic and endogenic cell activiation based on measuring the aggregation of receptors” (priority 2000, published 2003).

Key:
Format in all cases: cell-based
[1] = target: T1, CD47/CD14 (Uchm1) (Homo sapiens, UniProt P08571); assay: FRET co-assembly of CD47 with CD14 on monocytes; conditions: LPS 4 nM, ceramide 40 nM, LTA 1 μg/ml; mean ± SD of 10 experiments; >5% = positive transfer
T1 construct: endogenous in cells; host or cells: human monocytes in whole blood
T1 sequence (P08571 20-345 limits assumed): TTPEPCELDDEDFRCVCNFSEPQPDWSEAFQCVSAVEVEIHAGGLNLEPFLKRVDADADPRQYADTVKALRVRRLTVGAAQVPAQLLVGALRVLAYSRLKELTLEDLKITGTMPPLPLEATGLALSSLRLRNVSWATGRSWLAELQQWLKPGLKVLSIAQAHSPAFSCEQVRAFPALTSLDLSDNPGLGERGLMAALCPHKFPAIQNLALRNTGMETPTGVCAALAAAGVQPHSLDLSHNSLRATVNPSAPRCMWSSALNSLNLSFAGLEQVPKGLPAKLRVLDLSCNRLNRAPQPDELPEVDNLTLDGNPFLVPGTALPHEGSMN
Procedure: (§1) Aliquots […] of whole blood were incubated with the following stimulatory compounds at 37° C. for 15 minutes: LPS of Salmonella minnesota (0.1-10 nM, Mw 10 kDa), ceramide (primarily stearic acid and nervonic acid) and sulfogalactosyl ceramide (SG-cer, […]), both of which tested LPS free in the LAL assay (Cer, 1 nM-5.5 mM), lysophosphatidyl choline (lyso-PC, 10 mM), phorbol-12-myristate-13-acetate (PMA, 1 mM), N-formyl-L-methionyl-L-leucyl-L-phenyl alamine (fMLP, 1 mM), PE, PC, PI and PS liposomes (10 mm) which had been prepared as described above. All reagents were obtained from Sigma. In addition, the cells were stimulated with HPS70 (7 nM), dHSP70 (7 nM) and SG-cer+dHSP70 (40 nM+7 nM). After incubation, the cells were washed with cold PBS containing 0.1% of NaN3. The synthetic LPS antagonist lipid IVa (“compound-406”, 1-400 ng/ml) and lipid A derived from E. coli (1-100 ng/ml) were made available by courtesy of Dr. S. Kusumoto. The cells were pre-incubated with the LPS antagonist at 37° C. for 15 minutes and then stimulated with LPS at the same temperature (without washing).
(§2) Whole blood cells which had been stimulated or washed ex vivo […] were incubated on ice for 15 minutes with saturation concentrations of monoclonal fluorochrom-conjugated or biotinylated antibodies. The monoclonal antibodies CD11a (clone 25.3.1), CD16a (clone 3G8). […]

[2] = target: T2, CD11b and CD14 (Homo sapiens, UniProt P08571); assay: FRET flow cytometry: co-assembly of CD11b and CD14 on monocytes
T2 construct: endogenous in cells; host or cells: human monocytes in heparinised whole blood (healthy donors and patients)
T2 sequence (P08571 20-345 limits assumed): T1 sequence (P08571 20-345 limits assumed)
Procedure: as §1
(§3) Whole blood cells which had been stimulated or washed ex vivo […] were incubated on ice for 15 minutes with saturation concentrations of monoclonal fluorochrom-conjugated or biotinylated antibodies. The monoclonal antibodies CD11a (clone 25.3.1), CD16a (clone 3G8). CD18 (clone 7E4), CD14 (clone RMO52), CD33 (clone My9-RD1). CD81 (clone Js64) were obtained as R-phyco-erythrine (R-PE) conjugates and CD25 (clone B1.49.9) in biotinylated form from Coulter/Immunotech (Krefeld, Germany). CD11b (clone d12), CD11c (clone S-HCL-3), CD36 (clone CB38), CD47 (clone B6H12), CD81 (clone JS-81) and (Cd55 (clone IA10) in biotinylated form and Streptavidin-R-PE were purchased from Becton/Dickinson/Pharningen (Heidelberg, Germany) CD18 (clone IB4) in biontinylated form and CD40 (clone EA-5) as R-PE conjugate were obtained from Alexis (Grünberg, Germany) and CD14 (clones ×8 and Uchml) and CD3 (clone Cris-7) in biotinylated form and Streptavidin-Cy5 (Sa-Cy5) from Dianova (Hamburg, Germany), CD32 (clone C1KM5) and CD64 (clone 10.1) were obtained as R-PE conjugates from Caltag (Burlingame, U.S.A.) and CD91 (clone 8G1) in biotinylated form from Proen (Heidelberg, Germany). A monoclonal anti-TLRA antibody (clone HTA125) was kindly provided by Dr. Kensuke. Since no energy transfer between the antibodies directed against the CD14/CD11a and CD14/CD11c pairs was detectable either on resting or on stimulated cells, these antibody combinations were not characterised further.
Lysis of erythrocytes and washing were carried out as described (Rothe et al., Thromb. Vasc. Biol. 16 (1996), 1437-1447). After the last washing step, the samples were divided and part of each sample incubated with a saturating amount of SA-Cy5 on ice for 15 minutes and washed before measuring.
For energy transfer experiments, […] aliquots of whole blood were treated with cholesterol/methyl cyclodextrine (C/C) (100 mg/ml/4.6 mg/ml) or 2-hydroxypropyl-β-cyclodextrine (0.15 mg/ml) at 37° C. for 30 minutes and then stimulated further with LPS (4 nM) or ceramide (40 nM) as described above. The energy transfer between CD14 and CD11b was measured.
A “FACSCalibur” flow cytometer (Becton Dickinson) equipped with an air-cooled 15 mW argon laser (excitation wavelength 488 nm), a diode laser (excitation wavelength […]) and standard filters [channel 1 (FITC): 530/30 nm band pass filter; channel 2 (R-PE being used as donor dye); 585/47 nm band pass filter; channel 3 (PerCP): pass having a length of >670 nm; and channel 4 (Cy5being used as recipient dye): 661/16 nm bad pass filter] was used. The Cellquest software (Becton Dickinson) was used for the measurements. […] Measurement was conducted without compensation. 50,000 leukocytes were required in the “list” modus, forward scattering (FSC) being used as a trigger signal. […]

[3] = target: T3, CD64/CD14 (Uchm1) (Homo sapiens, UniProt P08571); assay: FRET co-assembly of CD64 with CD14 on monocytes; conditions: LPS 4 nM, ceramide 40 nM, LTA 1 μg/ml, HSP70 7 nM; mean ± SD of 10 experiments; >5% = positive transfer
T3 construct: endogenous in cells; host or cells: human monocytes in whole blood
T3 sequence (P08571 20-345 limits assumed): T1 sequence (P08571 20-345 limits assumed)
Procedure: as §1, §2

[4] = target: T4, TLR-4/CD14 (×8) (Homo sapiens, UniProt P08571); assay: FRET co-assembly of TLR-4 with CD14 on monocytes; conditions: LPS 4 nM, ceramide 40 nM, LTA 1 μg/ml, HSP70 7 nM; mean ± SD of 10 experiments; >5% = positive transfer
T4 construct: endogenous in cells; host or cells: human monocytes in whole blood
T4 sequence (P08571 20-345 limits assumed): T1 sequence (P08571 20-345 limits assumed)
Procedure: as §1, §2

[5] = target: T5, CD81/CD14 (×8) (Homo sapiens, UniProt P08571); assay: FRET co-assembly of CD81 with CD14 on monocytes; conditions: LPS 4 nM, ceramide 40 nM, LTA 1 μg/ml, HSP70 7 nM, mean ± SD of 10 experiments
T5 construct: endogenous in cells; host or cells: human monocytes in whole blood (donors; also sepsis and CAD patients)
T5 sequence (P08571 20-345 limits assumed): T1 sequence (P08571 20-345 limits assumed)
Procedure: as §1
as §3, with “further. […]” for “further.”

[6] = target: T6, CD36/CD14 (×8) (Homo sapiens, UniProt P08571); assay: FRET co-assembly of CD36 with CD14 on monocytes; conditions: LPS 4 nM, ceramide 40 nM, LTA 1 μg/ml, HSP70 7 nM; mean ± SD of 10 experiments; >5% = positive transfer
T6 construct: endogenous in cells; host or cells: human monocytes in whole blood
T6 sequence (P08571 20-345 limits assumed): T1 sequence (P08571 20-345 limits assumed)
Procedure: as §1, §2

[7] = target: T7, CD18(7E4)/CD14 (×8) (Homo sapiens, UniProt P08571); assay: FRET co-assembly of CD18 with CD14 on monocytes; conditions: LPS 4 nM, ceramide 40 nM, LTA 1 μg/ml, HSP70 7 nM; mean ± SD of 10 experiments; >5% = positive transfer
T7 construct: endogenous in cells; host or cells: human monocytes in whole blood
T7 sequence (P08571 20-345 limits assumed): T1 sequence (P08571 20-345 limits assumed)
Procedure: as §1, §2

[8] = target: T8, CD16/CD14 (Uchm1) (Homo sapiens, UniProt P08571); assay: FRET co-assembly of CD16 with CD14 on monocytes; conditions: LPS 4 nM, ceramide 40 nM, LTA 1 μg/ml; mean ± SD of 10 experiments; >5% = positive transfer
T8 construct: endogenous in cells; host or cells: human monocytes in whole blood
T8 sequence (P08571 20-345 limits assumed): T1 sequence (P08571 20-345 limits assumed)
Procedure: as §1, §2

[9] = target: T9, CD32/CD14 (Uchm1) (Homo sapiens, UniProt P08571); assay: FRET co-assembly of CD32 with CD14 on monocytes; conditions: LPS 4 nM, ceramide 40 nM, LTA 1 μg/ml, HSP70 7 nM; mean ± SD of 10 experiments; >5% = positive transfer
T9 construct: endogenous in cells; host or cells: human monocytes in whole blood
T9 sequence (P08571 20-345 limits assumed): T1 sequence (P08571 20-345 limits assumed)
Procedure: as §1, §2

[10] = target: T10, CD55/CD14 (Uchm1) (Homo sapiens, UniProt P08571); assay: FRET co-assembly of CD55 with CD14 on monocytes; conditions: LPS 4 nM, ceramide 40 nM, LTA 1 μg/ml, HSP70 7 nM; mean ± SD of 10 experiments; >5% = positive transfer
T10 construct: endogenous in cells; host or cells: human monocytes in whole blood
T10 sequence (P08571 20-345 limits assumed): T1 sequence (P08571 20-345 limits assumed)
Procedure: as §1, §2

- energy transfer CD47/CD14 (Uchm1) [1]: 11.9 ± 3.1%
- EC50 ([2]; human monocytes, FIG. 1b, read-out: EC50cer, ceramide-induced energy transfer between antibodies against CD11b and CD14 (clone ×8)): ~0.1 nM
- energy transfer CD64/CD14 (Uchm1) [3]: 10.4 ± 1.3%
- energy transfer TLR-4/CD14 (×8) [4]: 3.2 ± 2.5%
- energy transfer CD81 (JS-81)/CD14 (×8) ([5]; CD81 clone JS-81): 3.1 ± 2.4%
- energy transfer CD81 (Js64)/CD14 (×8) ([5]; CD81 clone Js64): 2.8 ± 0.7%
- energy transfer CD36/CD14 (×8) [6]: 10.1 ± 1.0 %
- energy transfer CD18(7E4)/CD14 (×8) [7]: 5.4 ± 0.8 %
- energy transfer CD16/CD14 (Uchm1) [8]: 3.2 ± 5.6%
- energy transfer CD32/CD14 (Uchm1) [9]: 11.6 ± 3.4%
- energy transfer CD55/CD14 (Uchm1) [10]: 9.7 ± 1.5%
Substance: ceramide
- co-assembly of CD11b and CD14 (energy transfer between monoclonal antibodies) ([2]; human monocytes in whole blood, stimulation with the substance alone, 37° C. 15 minutes): induces the transfer of CD14 into a receptor cluster
